Experiment [1] concerns RKO (RKOp27) human colon adenocarcinoma cells. As to the kind of experiment: Alamar Blue cell viability assay, proliferating (uninduced) RKO p27 cells. Format: cell-based. The note with it: anti-proliferative/cytotoxic activity, 72 hours incubation, no Ponasterone A. The method, then:
The anti-proliferative/cytotoxic activity of the compounds described herein, can be tested on subclones of RKO (RKOp27) human colon adenocarcinoma cells (Schmidt et al., Oncogene 19, 2423-2429; 2000) using the Alamar Blue cell viability assay (described in O'Brien et al. Eur J Biochem 267, 5421-5426, 2000). The compounds are dissolved as 20 mM solutions in dimethylsulfoxide (DMSO) and subsequently diluted in semi-logarithmic steps. DMSO dilutions are further diluted 1:100 into Dulbecco's modified Eagle's medium (DMEM) containing 10% fetal calf serum to a final concentration twice as much as the final concentration in the test. RKO subclones are seeded into 96 well flat bottom plates at a density of 5000 cells per well in a volume of 50 μl per well. 24 hours after seeding the 50 μl each of the compound dilutions in DMEM medium are added into each well of the 96 Well plate. Each compound dilution is tested as quadruplicates. Wells containing untreated control cells are filled with 50 μl DMEM medium containing 1% DMSO. The cells are then incubated with the substances for 72 hours at 37° C. in a hunified atmosphere containing 5% carbon dioxide. To determine the viability of the cells, 10 μl of an Alamar Blue solution (Biosource) are added and the fluorescence is measured at an extinction of 544 nm and an emission of 590 nm. For the calculation of the cell viability the emission value from untreated cells is set as 100% viability and the emission rates of treated cells are set in relation to the values of untreated cells. Viabilities are expressed as % values.
The corresponding IC50 values of the compounds for anti-proliferative/cytotoxic activity are determined from the concentration-effect curves.
(§1) Representative IC50 values for anti-proliferation/cytotoxicity determined in the mentioned assays follow from the following table A, in which the numbers of the compound correspond to the numbers of the examples.
(Resazurin is reduced to fluorescent resorufin, in cell work by metabolically active cells.)

Experiment [2] relates to RKO colon adenocarcinoma cells (RKOp27) arrested by the expression of ectopic p27Kip1. The experiment can be described thus: Alamar Blue cell viability assay, RKO p27 cells arrested by Ponasterone A induced p27Kip1. Format: cell-based. The settings on record: Homo sapiens, anti-proliferative/cytotoxic activity, 72 hours incubation, 10 μM Ponasterone A. Here is the method:
To determine the cell cycle specific mode of action, subclones of RKO colon adenocarcinoma cells (RKOp27 or RKOp21 as described by Schmidt et al. in Oncogene 19, 2423-2429; 2000) are seeded into 96 well flat bottom plates at a density of 15000 cells per well in a volume of 50 μl per well in DMEM growth medium with 10% FCS containing 10 μM Ponasterone A. 24 hours after seeding the 50 μl each of the compound dilutions in DMEM medium are added into each well of the 96 Well plate. Each compound dilution is tested as quadruplicates. Wells containing untreated control cells are filled with 50 μl DMEM medium containing 1% DMSO. The cells are then incubated with the substances for 72 hours at 37° C. in a humidified athmosphere containing 5% carbon dioxide. To determine the viability of the cells, 10 μl of an Alamar Blue solution (Biosource) are added and the fluorescence was measured at an extinction of 544 nm and an emission of 590 nm. For the calculation of the cell viability the emission value from untreated cells is set as 100% viability and the emission rates of treated cells are set in relation to the values of untreated cells. Viabilities are expressed as % values. Viability is compared of proliferating cells grown in the absence of the inducer Ponasterone A, versus viability of cells arrested by the expression of ectopic p27Kip1 induced by Ponasterone A.
as §1

Molecules are shown by their SMILES.

As a reminder, the IC50 is the concentration at which inhibition is half-maximal. Read a low IC50 as higher potency. Regarding `CCNC(=O)N1CCc2c(sc(NC(=O)C3CC3c3ccccc3OC)c2C#N)C1` (racemic) [Example 116, 3-Cyano-2-({1-[(RS)-2-(2-methoxy-phenyl)-cyclopropyl]-methanoyl}-amino)-4,7-dihydro-5H-thieno[2,3-c]pyridine-6-carboxylic acid ethylamide], the IC50 in experiment [1] is not above 500 nM; in experiment [2], not below 100000 nM.

As to `CCNC(=O)N1CCc2c(sc(NC(=O)C3CC3c3cccc(OC)c3)c2C#N)C1` (racemic) [Example 117, 3-Cyano-2-({1-[(RS)-2-(3-methoxy-phenyl)-cyclopropyl]-methanoyl}-amino)-4,7-dihydro-5H-thieno[2,3-c]pyridine-6-carboxylic acid ethylamide], the IC50 was not above 500 nM in experiment [1] and not below 60000 nM in experiment [2].

As to `COc1cccc(CCC(=O)Nc2sc3c(c2C#N)CCN(C(=O)NCCc2cn(C)cn2)C3)c1` [Example 71, 3-Cyano-2-[3-(3-methoxy-phenyl)-propanoylamino]-4,7-dihydro-5H-thieno[2,3-c]pyridine-6-carboxylic acid [2-(1-methyl-1H-imidazol-4-yl)-ethyl]-amide], the IC50 in experiment [1] is 500 to 2000 nM; in experiment [2], not below 100000 nM.

Regarding `COc1ccccc1CCC(=O)Nc1sc2c(c1C#N)CCN(C(=O)NCCc1cn(C)cn1)C2` [Example 105, 3-Cyano-2-[3-(2-methoxy-phenyl)-propanoylamino]-4,7-dihydro-5H-thieno[2,3-c]pyridine-6-carboxylic acid [2-(1-methyl-1H-imidazol-4-yl)-ethyl]-amide], the values for the IC50 in experiment [1] and in experiment [2] were not above 500 nM and not below 100000 nM, respectively.

With `CCNC(=O)N1CCc2c(sc(NC(=O)CCc3ccccc3OCC)c2C#N)C1` [Example 106, 3-Cyano-2-[3-(2-ethoxy-phenyl)-propanoylamino]-4,7-dihydro-5H-thieno[2,3-c]pyridine-6-carboxylic acid ethylamide], the IC50 in experiment [1] was not above 500 nM; in experiment [2], not below 100000 nM.

In the case of `CCNC(=O)N1CCc2c(sc(NC(=O)CCc3cc(C)ccc3OC)c2C#N)C1` [Example 107, 3-Cyano-2-[3-(2-methoxy-5-methyl-phenyl)-propanoylamino]-4,7-dihydro-5H-thieno[2,3-c]pyridine-6-carboxylic acid ethylamide], the IC50 was not above 500 nM in experiment [1] and not below 100000 nM in experiment [2].

Consider `CCNC(=O)N1CCc2c(sc(NC(=O)CCc3cccc(OC)c3)c2C#N)C1` [Example 108, 3-Cyano-2-[3-(3-methoxy-phenyl)-propanoylamino]-4,7-dihydro-5H-thieno[2,3-c]pyridine-6-carboxylic acid ethylamide], for which the IC50 in experiment [1] was not above 500 nM; in experiment [2], not below 100000 nM.

Turning to `CCNC(=O)N1CCc2c(sc(NC(=O)CCc3ccco3)c2C#N)C1` [Example 109, 3-Cyano-2-(3-furan-2-yl-propanoylamino)-4,7-dihydro-5H-thieno[2,3-c]pyridine-6-carboxylic acid ethylamide], the IC50 was not above 500 nM in experiment [1] and not below 100000 nM in experiment [2].

For `CCNC(=O)N1CCc2c(sc(NC(=O)CC(C)c3cccc(OC)c3)c2C#N)C1` (stereo not drawn) [Example 110, 3-Cyano-2-[3-(3-methoxy-phenyl)-butanoylamino]-4,7-dihydro-5H-thieno[2,3-c]pyridine-6-carboxylic acid ethylamide], the IC50 in experiment [1] was not above 500 nM; in experiment [2], not below 100000 nM.

Regarding `CCNC(=O)N1CCc2c(sc(NC(=O)CC(C)c3ccccc3OC)c2C#N)C1` (stereo not drawn) [Example 111, 3-Cyano-2-[3-(2-methoxy-phenyl)-butanoylamino]-4,7-dihydro-5H-thieno[2,3-c]pyridine-6-carboxylic acid ethylamide], the figures for the IC50 in experiment [1] and in experiment [2] were not above 500 nM and not below 60000 nM, respectively.

With `CCNC(=O)N1CCc2c(sc(NC(=O)CC(C)c3ccccc3OCC)c2C#N)C1` (stereo not drawn) [Example 112, 3-Cyano-2-[3-(2-ethoxy-phenyl)-butanoylamino]-4,7-dihydro-5H-thieno[2,3-c]pyridine-6-carboxylic acid ethylamide], the IC50 is not above 500 nM in experiment [1] and not below 100000 nM in experiment [2].

As for `CCNC(=O)N1CCc2c(sc(NC(=O)CCc3ccccc3OC)c2C#N)C1` [Example 113, 3-Cyano-2-[3-(2-methoxy-phenyl)-propanoylamino]-4,7-dihydro-5H-thieno[2,3-c]pyridine-6-carboxylic acid ethylamide], the IC50 in experiment [1] is not above 500 nM; in experiment [2] it was not below 100000 nM.

`CCNC(=O)N1CCc2c(sc(NC(=O)CC(C)c3ccccc3)c2C#N)C1` (stereo not drawn) [Example 114, 3-Cyano-2-(3-phenyl-butanoylamino)-4,7-dihydro-5H-thieno[2,3-c]pyridine-6-carboxylic acid ethylamide]: the IC50 was not above 500 nM in experiment [1] and not below 100000 nM in experiment [2].

As for `CCNC(=O)N1CCc2c(sc(NC(=O)CCc3ccccc3)c2C#N)C1` [Example 115, 3-Cyano-2-(3-phenyl-propanoylamino)-4,7-dihydro-5H-thieno[2,3-c]pyridine-6-carboxylic acid ethylamide], the values for the concentration for half-maximal inhibition (IC50) in experiment [1] and in experiment [2] were not above 500 nM and not below 100000 nM, respectively.

For `CCNC(=O)N1CCc2c(sc(NC(=O)CCC3CCCCC3)c2C#N)C1` [Example 118, 3-Cyano-2-(3-cyclohexyl-propanoylamino)-4,7-dihydro-5H-thieno[2,3-c]pyridine-6-carboxylic acid ethylamide], the IC50 is not above 500 nM in experiment [1] and not below 100000 nM in experiment [2].

For the origin of these results see patent US20100285149A1, “NOVEL TETRAHYDROPYRIDOTHIOPHENES” (priority 2006, published 2010).
